# From ChEMBL document CHEMBL1641415, “Discovery of a novel hybrid from finasteride and epristeride as 5α-reductase inhibitor” (Bioorg Med Chem Lett, 2011)
# Assays:
# [1] = biological target: T1, 3-oxo-5-alpha-steroid 4-dehydrogenase 2 (Homo sapiens, UniProt P31213); assay: Inhibition of human prostate 5alpha-reductase type 2 assessed as formation dihydrotestosterone from [4-14C] testosterone; assay type: tissue-based, Prostate gland
# T1 sequence (P31213 whole entry): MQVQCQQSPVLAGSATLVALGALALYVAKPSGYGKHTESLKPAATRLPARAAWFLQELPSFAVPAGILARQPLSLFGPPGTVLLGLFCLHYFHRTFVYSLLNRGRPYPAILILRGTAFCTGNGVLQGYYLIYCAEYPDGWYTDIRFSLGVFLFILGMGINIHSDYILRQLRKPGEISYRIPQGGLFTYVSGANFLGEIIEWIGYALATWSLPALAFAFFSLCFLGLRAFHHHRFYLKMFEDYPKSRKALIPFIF
# [2] = biological target: T2, 3-oxo-5-alpha-steroid 4-dehydrogenase 2 (Homo sapiens) (UniProt P31213); assay: Inhibition of human prostate 5alpha-reductase type 2 assessed as formation dihydrotestosterone from [4-14C] testosterone relative to finasteride; details: Prostate gland
# T2 sequence (whole entry): T1 sequence (P31213 whole entry)
Compound,IC50 [1] [nM],Ratio [2]
CC(C)(C)NC(=O)[C@H]1CC[C@H]2[C@@H]3CC[C@H]4NC(=O)C=C[C@]4(C)[C@H]3CC[C@]12C [FINASTERIDE],35,–
C[C@]12CC[C@@H]3c4ccc(O)cc4CC[C@H]3[C@@H]1CCC(=O)N2,> 1000,< 0.055
C[C@]12CCC(C(=O)O)=CC1=CC[C@@H]1[C@@H]2CC[C@]2(C)NC(=O)CC[C@@H]12,71,0.49
C[C@]12CC[C@@H]3c4ccc(OS(=O)(=O)O)cc4CC[C@H]3[C@@H]1CCC(=O)N2,> 1000,< 0.055
